# B1: parathyroid hormone (protein, listed as Homo sapiens)
# chain: MIPAKDMAKVMIVMLAICFLTKSDGKSVKKRSVSEIQLMHNLGKHLNSMERVEWLRKKLQDVHNFVALGAPLAPRDAGSQRPRKKEDNVLVESHEKSLGEADKADVNVLTKAKSQ
# modifications: Parathyroid Hormone
# notes: Parathyroid hormone, ligand of the PTH/PTHrP receptor (PTHR1)
# Columns and labels:
# chick chondrocytes = assay: Continuous 48 hr exposure of chick chondrocytes in culture; assay type: cell-based; details: for smurf2 expression: 48 hr chronic, continuous exposure, chick chondrocytes
# Experimental: FIG. 3C is a histogram showing levels of Smurf2 mRNA relative to control in chick sternal chondrocytes cultured with TGFβ, BMP-2, PTHrP, or dibutyryl cyclic adenosine monophosphate (dbcAMP) following a chronic, 48 hour exposure.
# The Western blots show pSmad3 and pSmad2 levels in chick sternal chondrocytes cultured in the presence or absence of TGFβ, PTHrP and/or a Smurf2 RNAi (Sf2 RNAi) for 48 hours.
# Without meaning to be limited by theory, this may have been due to down-regulation of TGF-β signaling by smurf2, allowing BMP signals to drive hypertrophy.
# articular cartilage = assay: Immediate treatment after meniscus/ligament injury (osteoarthritis model); assay type: in vivo, mice; details: for proteoglycan in the articular cartilage (Alcian Blue staining intensity): daily injection for 4 weeks starting immediately after surgery; for cartilage loss (histomorphometric joint cartilage area): daily injection for 12 weeks starting immediately after surgery
# Experimental: Treatment with teriparatide or PTH reduces the amount of cartilage loss as compared to treatment with saline. Mice exposed to sham surgery or meniscus/ligament injury, a model for osteoarthritis, were treated, starting immediately after surgery, with saline, teriparatide, or PTH for 4 weeks. […] Mice exposed to sham surgery or meniscus/ligament injury were treated, starting immediately after surgery, with saline, teriparatide, or PTH for 12 weeks.
# [1] = tested on: articular cartilage in mice; assay: Murine knee injury model (severe injury), daily injection, Alcian Blue histology; assay type: in vivo
# Experimental: Mice were anesthetized and an arthrotomy of the knee was performed. The medial collateral ligament was surgically transected, and the anterior horn of the medial meniscus was surgically removed to create a mild knee injury. For the severe injury group, the anterior cruciate ligament was also transected, causing severe joint instability in combination with the mild meniscal and medial collateral ligament injuries. The knee was surgically closed and animals were allowed free movement subsequently. One group with the severe combined injuries, as the most difficult case for cartilage protection, was treated daily with injections of teriparatide. After sacrifice at appropriate time points, the knee joints were removed, decalcified, embedded in paraffin, and 4-micron thick sections were stained with Alcian Blue to produce photomicrographs as shown in FIG. 4.
# [2] = tested on: white zone meniscal tears; assay: Rabbit white zone meniscal tear, treatment after surgery; assay type: in vivo; details: treated for 4 weeks after surgery, versus saline
# Experimental: FIGS. 12A and 12B show daily treatment with teriparatide for 4 weeks following meniscal surgery results in preliminary meniscal healing. […] Rabbits underwent surgery to produce white zone meniscal tears. The rabbits were treated with either saline (FIG. 12A) or teriparatide (FIG. 12B) after surgery for 4 weeks.
# cartilage = assay: Delayed treatment of osteoarthritic mice 8 weeks after joint surgery; assay type: in vivo; details: daily injections for 4 weeks after 8 week delay post surgery
# Experimental: Delayed treatment with teriparatide or PTH reduces the amount of cartilage loss as compared to treatment with saline. Mice were allowed to develop osteoarthritis for 8 weeks following joint surgery, as described above. After 8 weeks, the mice were treated for 4 weeks with daily injections of teriparatide or PTH, a delayed treatment regimen.
# Rabbit meniscal cells = assay: Cultured rabbit meniscal cells, mRNA expression; assay type: cell-based
# Experimental: Rabbit meniscal cells were isolated from rabbit menisci and cultured. Cultured meniscal cells were treated with PTH for 1 or 3 days.
molecule,measurement,setting,value
parathyroid hormone-related peptide [PTHrP],smurf2 expression,chick chondrocytes,stimulated smurf2 expression
same,pSmad2 and pSmad3 levels (Western blot),"chick chondrocytes; chick sternal chondrocytes, 48 hours, reversed by Smurf2 siRNA",reduction of pSmad2 and pSmad3
"CCCC(=O)Nc1ncnc2c1ncn2[C@@H]1O[C@@H]2COP(=O)(O)O[C@H]2[C@H]1OC(=O)CCC [dbcAMP, dibutyryl cyclic adenosine monophosphate]",smurf2 expression,chick chondrocytes,stimulated smurf2 expression
CC[C@H](C)[C@H](NC(=O)[C@H](CCC(=O)O)NC(=O)[C@H](CO)NC(=O)[C@@H](NC(=O)[C@@H](N)CO)C(C)C)C(=O)N[C@@H](CCC(N)=O)C(=O)N[C@@H](CC(C)C)C(=O)N[C@@H](CCSC)C(=O)N[C@@H](Cc1cnc[nH]1)C(=O)N[C@@H](CC(N)=O)C(=O)N[C@@H](CC(C)C)C(=O)NCC(=O)N[C@@H](CCCCN)C(=O)N[C@@H](Cc1cnc[nH]1)C(=O)N[C@@H](CC(C)C)C(=O)N[C@@H](CC(N)=O)C(=O)N[C@@H](CO)C(=O)N[C@@H](CCSC)C(=O)N[C@@H](CCC(=O)O)C(=O)N[C@@H](CCCN=C(N)N)C(=O)N[C@H](C(=O)N[C@@H](CCC(=O)O)C(=O)N[C@@H](Cc1c[nH]c2ccccc12)C(=O)N[C@@H](CC(C)C)C(=O)N[C@@H](CCCN=C(N)N)C(=O)N[C@@H](CCCCN)C(=O)N[C@@H](CCCCN)C(=O)N[C@@H](CC(C)C)C(=O)N[C@@H](CCC(N)=O)C(=O)N[C@@H](CC(=O)O)C(=O)N[C@H](C(=O)N[C@@H](Cc1cnc[nH]1)C(=O)N[C@@H](CC(N)=O)C(=O)N[C@@H](Cc1ccccc1)C(=O)O)C(C)C)C(C)C [teriparatide],proteoglycan in the articular cartilage (Alcian Blue staining intensity),articular cartilage,upregulation of proteoglycan
same,cartilage loss (histomorphometric joint cartilage area),articular cartilage,reduction in cartilage loss
same,development of cartilage degeneration and osteoarthritis,"[1]; severe injury (ACL and MCL transection plus medial menisectomy), 4, 8, 12 weeks",dramatically retards the development of cartilage degeneration and osteoarthritis
same,cellular repair activities and hypertrophy or maturational changes,[1]; severe knee injury,stimulated cellular repair activities with suppression of hypertrophy or maturational changes
same,"meniscal healing (defect, cellularity, proteoglycan content)",[2],narrowing of the defect with increased cellularlity and proteoglycan content
same,cartilage loss and regeneration versus saline control,cartilage,reduction in the loss of cartilage and regeneration of lost cartilage
B1,proteoglycan in the articular cartilage (Alcian Blue staining intensity),articular cartilage,upregulation of proteoglycan
same,cartilage loss (histomorphometric joint cartilage area),articular cartilage,reduction in cartilage loss
same,cyclin D1 mRNA,Rabbit meniscal cells; after 3 days of treatment,upregulation of mRNA for cyclin D1
same,type I collagen mRNA,Rabbit meniscal cells; treated for 1 or 3 days,upregulation of mRNA for type I collagen
same,cartilage loss and regeneration versus saline control,cartilage,reduction in the loss of cartilage and regeneration of lost cartilage

# Source: patent US9192653B2, “Protecting and repairing cartilage and musculoskeletal soft tissues” (University of Rochester, priority 2008, dated 2015)
